# Results from ChEMBL document CHEMBL1201861, “Genomics of Drug Sensitity in Cancer screening data, Wellcome Trust Sanger Institute”.
# What was measured:
# COR-L279 = assay: SANGER: Inhibition of human COR-L279 cell growth in a cell viability assay.; type: functional, cell-based
# CPC-N = assay: cells; type: functional, cell-based; details: Homo sapiens;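 further: growth inhibition of CPC-N cells, with a cell viability assay as the readout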
# Description: SANGER: Inhibition of human CPC-N cell growth in a cell viability assay.
# DU-145 = assay: cells; type: functional, cell-based, Homo sapiens; details: Homo sapiens, DU-145
# Description: SANGER: Inhibition of human DU-145 cell growth in a cell viability assay.
# HN = assay: cells; type: functional, cell-based, Homo sapiens; details: Homo sapiens, HN
# Description: SANGER: Inhibition of human HN cell growth in a cell viability assay.
# IST-SL2 = assay: cells; type: functional, cell-based; details: Homo sapiens;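 further: growth inhibition of human IST-SL2 cells, read out by a cell viability assay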
# Description: SANGER: Inhibition of human IST-SL2 cell growth in a cell viability assay.
# JIYOYE = assay: cells; type: functional, cell-based; details: Homo sapiens
# Description: SANGER: Inhibition of human JiyoyeP-2003 cell growth in a cell viability assay.
# KNS-81-FD = assay: cells; type: functional, cell-based, Homo sapiens; details: Homo sapiens, KNS-81-FD;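 further: growth inhibition of KNS-81-FD cells, read out with a cell viability assay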
# Description: SANGER: Inhibition of human KNS-81-FD cell growth in a cell viability assay.
# L-540 = assay: cells; type: functional, cell-based; details: Homo sapiens;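 further: growth inhibition of the human L-540 cell line, read out with a viability assay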
# Description: SANGER: Inhibition of human L-540 cell growth in a cell viability assay.
# LAMA-84 = assay: cells; type: functional, cell-based; details: Homo sapiens;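 further: growth inhibition of LAMA-84 cells, read out with a cell viability assay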
# Description: SANGER: Inhibition of human LAMA-84 cell growth in a cell viability assay.
# LAN-6 = assay: cells; type: functional, cell-based, Homo sapiens; details: Homo sapiens, LAN-6;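 further: growth inhibition of LAN-6 cells, determined with a cell viability assay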
# Description: SANGER: Inhibition of human LAN-6 cell growth in a cell viability assay.
# LB996-RCC = assay: cells; type: functional, cell-based; details: Homo sapiens
# Description: SANGER: Inhibition of human LB996-RCC cell growth in a cell viability assay.
# LU-165 = assay: cells; type: functional, cell-based; details: Homo sapiens
# Description: SANGER: Inhibition of human LU-165 cell growth in a cell viability assay.
# NALM-6 = assay: cells; type: functional, cell-based; details: Homo sapiens;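 further: growth inhibition of NALM-6 cells, read out with a cell viability assay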
# Description: SANGER: Inhibition of human NALM-6 cell growth in a cell viability assay.
# NCCIT = assay: SANGER: Inhibition of human NCCIT cell growth in a cell viability assay.; type: functional, cell-based
# NCI-H1092 = assay: cells; type: functional, cell-based; details: Homo sapiens
# Description: SANGER: Inhibition of human NCI-H1092 cell growth in a cell viability assay.
# NCI-H1304 = assay: cells; type: functional, cell-based; details: Homo sapiens;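 further: growth inhibition of the cancer cell line, measured in a cell viability assay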
# Description: SANGER: Inhibition of human NCI-H1304 cell growth in a cell viability assay.
# NCI-H1417 = assay: cells; type: functional, cell-based; details: Homo sapiens;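 further: human NCI-H1417 cells, growth inhibition determined with a cell viability readout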
# Description: SANGER: Inhibition of human NCI-H1417 cell growth in a cell viability assay.
# NCI-H1436 = assay: cells; type: functional, cell-based; details: Homo sapiens;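 further: growth suppression of human NCI-H1436 cells, determined with a cell viability readout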
# Description: SANGER: Inhibition of human NCI-H1436 cell growth in a cell viability assay.
# NCI-H1648 = assay: cells; type: functional, cell-based, Homo sapiens; details: Homo sapiens, NCI-H1648;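 further: cell viability assay measuring inhibition of NCI-H1648 cell growth, from the Sanger screening data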
# Description: SANGER: Inhibition of human NCI-H1648 cell growth in a cell viability assay.
# NCI-H187 = assay: cells; type: functional, cell-based; details: Homo sapiens;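 further: growth inhibition of NCI-H187 cells, read out as cell viability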
# Description: SANGER: Inhibition of human NCI-H187 cell growth in a cell viability assay.
# NCI-H2141 = assay: cells; type: functional, cell-based; details: Homo sapiens;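 further: growth inhibition of human NCI-H2141 cells, read out with a cell viability assay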
# Description: SANGER: Inhibition of human NCI-H2141 cell growth in a cell viability assay.
# NCI-H2171 = assay: cells; type: functional, cell-based; details: Homo sapiens;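 further: growth inhibition of human NCI-H2171 cells, read out by a cell viability assay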
# Description: SANGER: Inhibition of human NCI-H2171 cell growth in a cell viability assay.
# NCI-H2405 = assay: cells; type: functional, cell-based, Homo sapiens; details: Homo sapiens, NCI-H2405;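 further: growth inhibition of the human cell line, read out with a cell viability assay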
# Description: SANGER: Inhibition of human NCI-H2405 cell growth in a cell viability assay.
# NCI-H345 = assay: cells; type: functional, cell-based; details: Homo sapiens;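 further: growth inhibition of NCI-H345 cells measured with a cell viability assay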
# Description: SANGER: Inhibition of human NCI-H345 cell growth in a cell viability assay.
# NCI-H524 = assay: cells; type: functional, cell-based; details: Homo sapiens;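 further: growth inhibition of human NCI-H524 cells, read out through a cell viability assay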
# Description: SANGER: Inhibition of human NCI-H524 cell growth in a cell viability assay.
# NCI-H716 = assay: cells; type: functional, cell-based; details: Homo sapiens;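 further: growth inhibition of human NCI-H716 cells, measured by a cell viability assay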
# Description: SANGER: Inhibition of human NCI-H716 cell growth in a cell viability assay.
# NCI-H748 = assay: cells; type: functional, cell-based; details: Homo sapiens;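 further: growth inhibition of NCI-H748 cells, measured by a cell viability assay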
# Description: SANGER: Inhibition of human NCI-H748 cell growth in a cell viability assay.
# NCI-H810 = assay: cells; type: functional, cell-based, Homo sapiens; details: Homo sapiens, NCI-H810;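 further: IC50 reflects inhibition of cancer cell line growth, read out with a cell viability assay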
# Description: SANGER: Inhibition of human NCI-H810 cell growth in a cell viability assay.
# NCI-H82 = assay: cells; type: functional, cell-based; details: Homo sapiens;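 further: growth inhibition of NCI-H82 cells, measured with a cell viability readout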
# Description: SANGER: Inhibition of human NCI-H82 cell growth in a cell viability assay.
# NCI-H889 = assay: cells; type: functional, cell-based; details: Homo sapiens;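 further: cell growth inhibition of the cell line, read out with a viability assay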
# Description: SANGER: Inhibition of human NCI-H889 cell growth in a cell viability assay.
# SNU-16 = assay: cells; type: functional, cell-based; details: Homo sapiens;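 further: growth inhibition of human SNU-16 cells, determined with a cell viability readout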
# Description: SANGER: Inhibition of human NCI-SNU-16 cell growth in a cell viability assay.
# NOMO-1 = assay: cells; type: functional, cell-based; details: Homo sapiens;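 further: growth inhibition of human NOMO-1 cells measured by a cell viability assay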
# OAW-28 = assay: cells; type: functional, cell-based, Homo sapiens; details: Homo sapiens, OAW-28;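 further: growth inhibition of OAW-28 cells, read out with a cell viability assay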
# Description: SANGER: Inhibition of human OAW-28 cell growth in a cell viability assay.
# Panc1005 = assay: cells; type: functional, cell-based, Homo sapiens; details: Homo sapiens, Panc1005;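 further: growth inhibition of human PANC-10-05 cells, measured by a cell viability assay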
# Description: SANGER: Inhibition of human PANC-10-05 cell growth in a cell viability assay.
# RPMI-6666 = assay: cells; type: functional, cell-based; details: Homo sapiens
# Description: SANGER: Inhibition of human RPMI-6666 cell growth in a cell viability assay.
# RPMI 8402 = assay: SANGER: Inhibition of human RPMI-8402 cell growth in a cell viability assay.; type: functional, cell-based
# SCLC-21H = assay: cells; type: functional, cell-based; details: Homo sapiens;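 further: growth inhibition of cultured human SCLC-21H cells, read out with a cell viability assay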
# Description: SANGER: Inhibition of human SCLC-21H cell growth in a cell viability assay.
# SJRH30 = assay: cells; type: functional, cell-based; details: Homo sapiens;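 further: growth inhibition of human SJRH30 cells, read out with a cell viability assay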
# Description: SANGER: Inhibition of human SJRH30 cell growth in a cell viability assay.
# SNU-C1 = assay: cells; type: functional, cell-based; details: Homo sapiens;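 further: growth inhibition of SNU-C1 human cells, read out by a cell viability assay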
# Description: SANGER: Inhibition of human SNU-C1 cell growth in a cell viability assay.
# SR = assay: cells; type: functional, cell-based; details: Homo sapiens
# Description: SANGER: Inhibition of human SR cell growth in a cell viability assay.
# SW872 = assay: cells; type: functional, cell-based, Homo sapiens; details: Homo sapiens, SW872;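 further: growth inhibition of SW872 cells, read out by a viability assay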
# Description: SANGER: Inhibition of human SW872 cell growth in a cell viability assay.
# SAOS-2 = assay: cells; type: functional, cell-based, Homo sapiens; details: Homo sapiens, SAOS-2;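 further: growth inhibition of human Saos-2 cells determined by a cell viability assay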
# Description: SANGER: Inhibition of human Saos-2 cell growth in a cell viability assay.
# 23132-87 = assay: cells; type: functional, cell-based, Homo sapiens; details: Homo sapiens
# Description: SANGER: Inhibition of human 23132-87 cell growth in a cell viability assay.
# 8505C = assay: cells; type: functional, cell-based, Homo sapiens; details: Homo sapiens, 8505C
# Description: SANGER: Inhibition of human 8505C cell growth in a cell viability assay.
# A704 = assay: cells; type: functional, cell-based, Homo sapiens; details: Homo sapiens, A704;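 further: growth inhibition of human A704 cells, read out with a cell viability assay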
# Description: SANGER: Inhibition of human A704 cell growth in a cell viability assay.
# ARH-77 = assay: cells; type: functional, cell-based; details: Homo sapiens;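 further: growth inhibition of ARH-77 cells, read out by a cell viability assay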
# Description: SANGER: Inhibition of human ARH-77 cell growth in a cell viability assay.
# BL-41 = assay: cells; type: functional, cell-based; details: Homo sapiens;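 further: growth inhibition of human BL-41 cells, read out with a cell viability assay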
# Description: SANGER: Inhibition of human BL-41 cell growth in a cell viability assay.
# CAL-148 = assay: cells; type: functional, cell-based; details: Homo sapiens
# Description: SANGER: Inhibition of human CAL-148 cell growth in a cell viability assay.
# CAL-33 = assay: cells; type: functional, cell-based, Homo sapiens; details: Homo sapiens, CAL-33;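 further: growth inhibition of CAL-33 cells, read out with a cell viability assay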
# Description: SANGER: Inhibition of human CAL-33 cell growth in a cell viability assay.
# CAL-62 = assay: cells; type: functional, cell-based, Homo sapiens; details: Homo sapiens, CAL-62;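 further: growth inhibition of CAL-62 cells, read out with a cell viability assay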
# Description: SANGER: Inhibition of human CAL-62 cell growth in a cell viability assay.
# TE-441-T = assay: cells; type: functional, cell-based; details: Homo sapiens
# Description: SANGER: Inhibition of human TE-441-T cell growth in a cell viability assay.
# CMK = assay: cells; type: functional, cell-based; details: Homo sapiens;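 further: growth inhibition of CMK cells, read out as cell viability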
# Description: SANGER: Inhibition of human CMK cell growth in a cell viability assay.
compound,measurement,setting,value
C=CCc1cccc(/C=N/NC(=O)CN2CCN(Cc3ccccc3)CC2)c1O [PAC-1],IC50,COR-L279,> 2.56 µM
same,IC50,CPC-N,> 2.56 µM
same,IC50,DU-145,> 2.56 µM
same,IC50,HN,> 2.56 µM
same,IC50,IST-SL2,> 2.56 µM
same,IC50,JIYOYE,1100 nM
same,IC50,KNS-81-FD,> 2.56 µM
same,IC50,L-540,2200 nM
same,IC50,LAMA-84,> 2.56 µM
same,IC50,LAN-6,> 2.56 µM
same,IC50,LB996-RCC,> 2.56 µM
same,IC50,LU-165,> 2.56 µM
same,IC50,NALM-6,703 nM
same,IC50,NCCIT,> 2.56 µM
same,IC50,NCI-H1092,> 2.56 µM
same,IC50,NCI-H1304,> 2.56 µM
same,IC50,NCI-H1417,> 2.56 µM
same,IC50,NCI-H1436,> 2.56 µM
same,IC50,NCI-H1648,> 2.56 µM
same,IC50,NCI-H187,> 2.56 µM
same,IC50,NCI-H2141,> 2.56 µM
same,IC50,NCI-H2171,> 2.56 µM
same,IC50,NCI-H2405,> 2.56 µM
same,IC50,NCI-H345,> 2.56 µM
same,IC50,NCI-H524,> 2.56 µM
same,IC50,NCI-H716,> 2560 nM
same,IC50,NCI-H748,> 2.56 µM
same,IC50,NCI-H810,> 2.56 µM
same,IC50,NCI-H82,> 2.56 µM
same,IC50,NCI-H889,> 2.56 µM
same,IC50,SNU-16,> 2.56 µM
same,IC50,NOMO-1,> 2.56 µM
same,IC50,OAW-28,> 2.56 µM
same,IC50,Panc1005,> 2.56 µM
same,IC50,RPMI-6666,1040 nM
same,IC50,RPMI 8402,1770 nM
same,IC50,SCLC-21H,> 2.56 µM
same,IC50,SJRH30,> 2.56 µM
same,IC50,SNU-C1,> 2.56 µM
same,IC50,SR,> 2.56 µM
same,IC50,SW872,> 2.56 µM
same,IC50,SAOS-2,> 2.56 µM
same,IC50,23132-87,> 2.56 µM
same,IC50,8505C,> 2.56 µM
same,IC50,A704,> 2560 nM
same,IC50,ARH-77,> 2.56 µM
same,IC50,BL-41,1450 nM
same,IC50,CAL-148,> 2.56 µM
same,IC50,CAL-33,> 2.56 µM
same,IC50,CAL-62,> 2.56 µM
same,IC50,TE-441-T,> 2.56 µM
same,IC50,CMK,2130 nM
Cc1ccc(Nc2nccc(N(C)c3ccc4c(C)n(C)nc4c3)n2)cc1S(N)(=O)=O [PAZOPANIB],IC50,COR-L279,> 8 µM
same,IC50,CPC-N,> 8 µM
same,IC50,DU-145,> 8 µM
same,IC50,HN,> 8 µM
same,IC50,IST-SL2,> 8 µM
same,IC50,JIYOYE,> 8000 nM
same,IC50,KNS-81-FD,> 8 µM
same,IC50,L-540,> 8000 nM
same,IC50,LAMA-84,> 8 µM
same,IC50,LAN-6,> 8 µM
same,IC50,LB996-RCC,> 8 µM
same,IC50,LU-165,> 8 µM
same,IC50,NALM-6,> 8000 nM
same,IC50,NCCIT,> 8 µM
same,IC50,NCI-H1092,> 8 µM
same,IC50,NCI-H1304,> 8 µM
same,IC50,NCI-H1417,> 8 µM
same,IC50,NCI-H1436,> 8 µM
same,IC50,NCI-H1648,> 8 µM
same,IC50,NCI-H187,> 8 µM
same,IC50,NCI-H2141,> 8 µM
same,IC50,NCI-H2171,> 8 µM
same,IC50,NCI-H2405,> 8 µM
same,IC50,NCI-H345,> 8 µM
same,IC50,NCI-H524,> 8 µM
same,IC50,NCI-H716,2320 nM
same,IC50,NCI-H748,> 8 µM
same,IC50,NCI-H810,6.31 µM
same,IC50,NCI-H82,> 8 µM
same,IC50,NCI-H889,> 8 µM
same,IC50,SNU-16,> 8 µM
same,IC50,NOMO-1,> 8 µM
same,IC50,OAW-28,> 8 µM
same,IC50,Panc1005,> 8 µM
same,IC50,RPMI-6666,> 8000 nM
same,IC50,RPMI 8402,> 8000 nM
same,IC50,SCLC-21H,> 8 µM
same,IC50,SJRH30,> 8 µM
same,IC50,SNU-C1,> 8 µM
same,IC50,SR,> 8 µM
same,IC50,SW872,> 8 µM
same,IC50,SAOS-2,> 8 µM
same,IC50,23132-87,> 8 µM
same,IC50,8505C,> 8 µM
same,IC50,A704,1600 nM
same,IC50,ARH-77,> 8 µM
same,IC50,BL-41,> 8000 nM
same,IC50,CAL-148,> 8 µM
same,IC50,CAL-33,> 8 µM
same,IC50,CAL-62,> 8 µM
same,IC50,TE-441-T,> 8 µM
same,IC50,CMK,> 8000 nM
